# Key:
# [1] = test system: T47-D (ER-positive) breast tumor cell line; test: Cell death by MTT assay, T47-D; format: cell-based, human; settings: 24 hours, mean of four experiments
# Protocol: (§1) The ER-positive breast tumor cell lines MCF-7 and T47-D and the HER2 positive breast tumor cell lines MDA-MB-453 and BT474 (also ER-positive) were incubated with the indicated concentration of each mentioned compound of formula (I) for 24 hours and then cell death was assessed using MTT assay.
# (§2) For each cell line, the percentage of cell death (mean of four experiments for cell lines MCF-7 and T47-D, and two experiments for cell lines MDA-MB-453 and BT474) is given in view of the increasing concentration of each tested compound of the invention.
# (§3) Cell viability was assessed using the 3-[4,5-dimethylthiazol-2-yl]-2,5-diphenyltetrazolium bromide (MTT) viability assay (1). In brief, cells (4×10^4 per well) were cultured for 20 h in flat-bottomed 96 well plates with various concentrations of the apoptosis inducer. Then 0.015 ml of MTT (5 mg/ml in PBS) was added to each well and incubated for 4 h at 37° C. Formazan salt precipitats were dissolved by adding 0.115 ml of isopropyl alcohol containing 1% formic acid (v/v), and the absorbance was measured at 570 nm.
# [2] = test system: MCF-7 (ER-positive) breast tumor cell line; test: Cell death by MTT assay, MCF-7; format: cell-based, human; settings: 24 hours, mean of four experiments
# Protocol: as §1, §2, §3
# mTORC1 = mTORC1 (Homo sapiens, UniProt P42345); test: Immunoblot of mTORC1 substrates p70S6K-Thr389 and 4EBP1-Thr37 and 46 in CEM cells; format: cell-based; parameters: AML cells (1.10^6 cells) deficient for TSC2 (TS2^−/−) or reconstituted with wild type TSC2; endogenous in cells; settings: 2 hours, FIG. 16
# Protocol: CEM cells (1·10^6 cells) were incubated with indicated concentrations of compound 25 for 2 hours and lysates of the cells were subjected to Western blot analysis. Inhibitory activity of compound 25 on mTORC1 substrates p70S6K-Thr389 and 4EBP1-Thr37 and 46 and on mTORC2 substrate Akt-Ser473 and on PDK1 substrate Akt-Thr308 was evaluated by immunoblotting. Total 4EBP1, p70S6K, Akt and […] serve as loading controls. The compounds of the invention and more particularly compound 25 may be competitive inhibitors of mTOR because they inhibit mTORC1 (4EBP1 and p70S6K) and mTORC2 substrates (AKT at S473) as shown in FIG. 16.
# Immunoblots Excepted for immunoprecipitation experiments in which cells were lyzed with RIPA buffer, cells were lyzed for 30 min at 4° C. in Lysis buffer (25 mM HEPES pH 7.4, 1% v/v Triton X-100, 150 mM NaCl, 2 mM EGTA supplemented with a mix of protease inhibitors). Protein concentration was determined by the bicinchoninic acid method (Pierce, Rockford, Ill., USA) according to the manufacturer's protocol. Proteins were resolved by 8, 10 or 12% SDS-PAGE and transferred to a nitrocellulose membrane (GE Healthcare, Buckinghamshire, UK). The membrane was blocked 15 min with TBST (50 mM Tris, 160 mM NaCl, 0.05% v/v Tween 20, pH 7.4) containing 5% w/v dried skimmed milk (TBS™). Primary antibody was incubated overnight at 4° C. in TBS™. […]
# [3] = test system: MDA-MB-453 (HER2 positive) breast tumor cell line; test: Cell death by MTT assay, MDA-MB-453; format: cell-based, human; settings: 24 hours, mean of two experiments
# Protocol: as §1, §2, §3
# [4] = test system: PI3K/AKT activity (AKT phosphorylation); test: PI3K/AKT/mTOR pathway inhibitory activity: level of AKT phosphorylation in CEM cells over time; format: cell-based, human; settings: 10 μM, FIGS. 7 and 8
# Protocol: The CEM cell was incubated with 10 μM of each mentioned compound of formula (I) for the indicated times and then cells were lysed and 100 μg of protein was loaded per line and resolved by SDS-PAGE. The levels of AKT phosphorylation (hallmark of PI3K activation) and total AKT (loading control) were analyzed by Western blot and the amount of AKT phosphorylation relative to the total amount of protein AKT was quantified by densitometric analysis, the intensity of each band was scanned and the level of AKT phosphorylation was reported to the amount of whole AKT and the percentage of phosphorylated-AKT was depicted.
# Immunoblots Excepted for immunoprecipitation experiments in which cells were lyzed with RIPA buffer, cells were lyzed for 30 min at 4° C. in Lysis buffer (25 mM HEPES pH 7.4, 1% v/v Triton X-100, 150 mM NaCl, 2 mM EGTA supplemented with a mix of protease inhibitors). Protein concentration was determined by the bicinchoninic acid method (Pierce, Rockford, Ill., USA) according to the manufacturer's protocol. Proteins were resolved by 8, 10 or 12% SDS-PAGE and transferred to a nitrocellulose membrane (GE Healthcare, Buckinghamshire, UK). The membrane was blocked 15 min with TBST (50 mM Tris, 160 mM NaCl, 0.05% v/v Tween 20, pH 7.4) containing 5% w/v dried skimmed milk (TBS™). Primary antibody was incubated overnight at 4° C. in TBS™. The membrane was intensively washed (TBST) and then the peroxydase-labeled anti-mouse IgG1 or IgG2a (CliniSciences, Nanterre, France) was added for 45 min. Proteins were visualized with the enhanced chemiluminescence substrate kit (ECL RevelBIOt®, Ozyme, Saint Quentin en Yvelines, France).
# BT549 cells = test: Boyden chamber cell migration, BT549 stimulated with CD95L; format: cell-based, human; settings: BT549, 1 μM, CD95L 100 ng/ml, 24 hours, FIG. 17A
# Protocol: TNBC (MDA-MB-231 and BT549) cell lines were pre-incubated for 1 hour in presence or absence of non-cytotoxic amount of compound 25 (1 μM) and then treated or untreated with CD95L (100 ng/ml) for 24 hours. Cell migration was analyzed using Boyden chamber assay. Migrating Giemsa-stained cells were lysed and absorbance was measured at a wavelength of 560 nm. Values represent the means±SEM of three independently performed experiments. *p<0.05 as calculated using two-tailed Mann-Whitney test.
# After membrane hydration of Boyden chambers (Millipore, Molsheim, France) containing 8 μm pore membranes, 10^5 cells were added to the top chamber. The bottom chamber was filled with low serum (1%)-containing medium in the presence or absence of cl-CD95L (100 ng/ml). Breast cancer cells were incubated for 24 h. To quantify invasion, cells were fixed with methanol and stained with Giemsa. Stained cells were then removed from the top-side of the membrane using a cotton-tipped swab and five representative pictures for each insert were taken of the invading cells from the reverse side. For each experiment, invading cells were lysed and absorbance at 560 nm was measured.
# [5] = test system: TSC2^−/− AML (AngioMyoLipoma) cells; test: Cell viability by MTT assay on TSC2^−/− and TSC2^+/+ AML cells; format: cell-based, human; settings: 16 hours, 1% fetal calf serum
# Protocol: AML (AngioMyoLipoma) cells from a patient (generous gift from Dr M. Pende, Paris) were enriched for TSC2^−/− cells, as a model of tuberous sclerosis. These cells have been reconstituted with wild type TSC2 (TSC2^+/+). Cell proliferation was assessed in cells from angiomyolipomas and their counterparts reconstituted with wild type TSC2.
# Cell viability was assessed by MTT assay. Cells were incubated for 16 hours in a 1% fetal calf serum-containing medium supplemented with the indicated concentrations of the two mTOR inhibitors, compound 25 or rapamycin (see FIGS. 14B and 14C). Data represent mean and standard deviation of three independent experiments.
# as §3
smiles,measurement,setting,value
"O=[N+]([O-])C1=Cc2cc(Br)cc(Br)c2OC1c1ccc(Br)cc1 (stereo not drawn) [Compound 25, 6,8-dibromo-2-(4-bromo-phenyl)-3-nitro-2H-chromene]",percentage of cell death,[1]; 6.25 μM,85.31%
same,percentage of cell death,[1]; 12.5 μM,91.27%
same,percentage of cell death,[1]; 25 μM,90.23%
same,percentage of cell death,[1]; 50 μM,91.25%
same,percentage of cell death,"[2]; MCF-7, 6.25 μM",47.86%
same,percentage of cell death,"[2]; MCF-7, 12.5 μM",63.54%
same,percentage of cell death,"[2]; MCF-7, 25 μM",76.72%
same,percentage of cell death,"[2]; MCF-7, 50 μM",94.09%
same,inhibitory activity on mTORC1 substrates (4EBP1 and p70S6K),mTORC1,inhibit
same,percentage of cell death,"[3]; MDA-MB-453, 0.390625 μM",0%
same,percentage of cell death,"[3]; MDA-MB-453, 0.78125 μM",9.09%
same,percentage of cell death,"[3]; MDA-MB-453, 1.5625 μM",81%
same,percentage of cell death,"[3]; MDA-MB-453, 3.125 μM",85.57%
same,percentage of cell death,"[3]; MDA-MB-453, 6.25 μM",89.213%
same,percentage of cell death,"[3]; MDA-MB-453, 12.5 μM",95.09%
same,percentage of cell death,"[3]; MDA-MB-453, 25 μM",99.35%
same,percentage of cell death,"[3]; MDA-MB-453, 50 μM",100.76%
same,inhibitory activity on PI3K/AKT (level of AKT phosphorylation),[4],very strong inhibitors
same,migration of tumor cells stimulated with CD95L,BT549 cells,abrogate
same,"sensitivity of TSC2^−/− cells versus wild type TSC2^+/+ cells (cell death, MTT)",[5]; FIG. 14B,more sensitive
same,efficiency to kill TSC2^−/− cells compared with rapamycin,[5]; FIGS. 14B and 14C,more efficient

# Source: patent US9656984B2, “PI3K/AKT/mTOR inhibitors and pharmaceutical uses thereof” (UNIVERSITE DE RENNES 1, priority 2013, dated 2017)
